This is an account of results in patent US8362256B2, “Salts of N-[4-(1-cyanocyclopentyl)phenyl]-2-(4-pyridylmethyl)amino-3-pyridinecarboxamide” (Jiangsu Hengrui Medicine Co. Ltd., priority 2008, dated 2013).

Marks after values point to notes of the source that are not given here.

For this series, the system named is human colon cancer Ls174t. The series is described as follows: Efficacy on human colon cancer Ls174t transplanted in nude mice. The following applies: for Weight after Removing Tumor, d0 / TV x ± SD, d0: d0 baseline; for RTV x ± SD / T/C / TV x ± SD, dn: dn 14 days; for Weight after Removing Tumor, dn: dn 14 days after first administration. How it is done:
BALB/cA-nude mice, ♀, 5-6 weeks-old, available from Shanghai Slaccas experimental animals limited liability company. […] Rearing environment: SPF grade.
After one week adaption, the experimental animals were subcutaneously inoculated with human colon cancer Ls174t tumor tissues. When the tumors grew to 100-300 mm^3, the animals were randomly divided into several groups in day 0 (d0). […] The volumes of tumors and the weights of mice were measured 2-3 times every week, the data of which were recorded. The equation for the calculation of volume of tumors (V) is: V=½×a×b^2 wherein a and b represent length and width, respectively.

[1] abbreviates: 50 mg/kg p.o. once daily d0-d13.
Where [2] appears, read: 100 mg/kg p.o. once daily d0-d13.
The mark [3] stands for this setting: 200 mg/kg p.o. once daily d0-d13.

For `N#CC1(c2ccc(NC(=O)c3cccnc3NCc3ccncc3)cc2)CCCC1` [Mesylate of compound A], the “Weight after Removing Tumor, d0” value runs as follows: under setting [1], 19.1 g; under setting [2], 19.0 g; under setting [3], 18.6 g. For the same compound, the “RTV x ± SD” value runs as follows: under setting [1], 9.8 ± 3.0; under setting [2], 6.4 ± 3.1; under setting [3], 2.0 ± 0.9. In addition, the T/C (as a rule, the ratio of treated to control) under setting [1] is 79.7%; the T/C under setting [2] is 52.0^a %; the T/C (200 mg/kg p.o. once daily d0-d13, listed as Mesylate of Compound A) was 16.3^a %; the T/C (200 mg/kg p.o. once daily d0-d13, listed as mesylate of compound A) stood at 16.3%. Further, the “TV x ± SD, dn” value is, setting by setting: under setting [1], 1452 ± 149; under setting [2], 931 ± 196; under setting [3], 310 ± 114. The “Weight after Removing Tumor, dn” value is 16.8 g under setting [1], 18.5 g under setting [2] and 18.5 g under setting [3]. Also, the “TV x ± SD, d0” value by setting is: (50 mg/kg p.o.) 155 ± 33; (100 mg/kg p.o.) 161 ± 44; (200 mg/kg p.o.) 158 ± 20. The “efficacy at 400 mg/kg” value (400 mg/kg) was “did not increase significantly”. For the setting “Mus musculus, LS174T, read-out: ED50 on colon cancer Ls174t”, the ED50 (commonly the dose at which the effect has come halfway, by size or by number of responders) was determined as 97.2 mg/kg. Moreover, the “tolerance at 400 mg/kg” value (mouse, in vivo) was “could be tolerated by mice”.
